This assay relates to SARS-CoV-2. As to the kind of experiment: Antiviral activity against SARS CoV-2 infected in HEK293 cells overexpressing hACE2 assessed as inhibition of viral infection. Conditions: Severe acute respiratory syndrome coronavirus 2, HEK293. It is filed as functional, organism-based.

pIC50: −log10 of the molar value.

Usually pIC50 stands for the negative decadic logarithm of the IC50, by convention in mol/L. On to `NC(=O)CC[C@H](NC(=O)[C@H](Cc1ccc(O)cc1)NC(=O)[C@H](Cc1ccccc1)N1CCN(C(=O)[C@H](CC(=O)O)NC(=O)[C@@H](N)CCC(=O)O)CC1=O)C(N)=O`, for which the pIC50 is 4.82.

For the origin of these results see ChEMBL document CHEMBL6127038, “How many organic small molecules might be used to treat COVID-19? From natural products to synthetic agents” (Eur J Med Chem, 2024).
